Test results published in patent US20150274719A1, “AMINO-SUBSTITUTED IMIDAZO[1,2-A]PYRIDINECARBOXAMIDES AND THEIR USE” (BAYER PHARMA AKTIENGESELLSCHAFT, priority 2012, published 2015).

Target: T1, recombinant guanylate cyclase reporter cell line (Rattus norvegicus, UniProt P19686+P20595)
T1 construct: expressed in transfected cells; host or cells: recombinant reporter cell line
T1 sequence (P19686 1-690): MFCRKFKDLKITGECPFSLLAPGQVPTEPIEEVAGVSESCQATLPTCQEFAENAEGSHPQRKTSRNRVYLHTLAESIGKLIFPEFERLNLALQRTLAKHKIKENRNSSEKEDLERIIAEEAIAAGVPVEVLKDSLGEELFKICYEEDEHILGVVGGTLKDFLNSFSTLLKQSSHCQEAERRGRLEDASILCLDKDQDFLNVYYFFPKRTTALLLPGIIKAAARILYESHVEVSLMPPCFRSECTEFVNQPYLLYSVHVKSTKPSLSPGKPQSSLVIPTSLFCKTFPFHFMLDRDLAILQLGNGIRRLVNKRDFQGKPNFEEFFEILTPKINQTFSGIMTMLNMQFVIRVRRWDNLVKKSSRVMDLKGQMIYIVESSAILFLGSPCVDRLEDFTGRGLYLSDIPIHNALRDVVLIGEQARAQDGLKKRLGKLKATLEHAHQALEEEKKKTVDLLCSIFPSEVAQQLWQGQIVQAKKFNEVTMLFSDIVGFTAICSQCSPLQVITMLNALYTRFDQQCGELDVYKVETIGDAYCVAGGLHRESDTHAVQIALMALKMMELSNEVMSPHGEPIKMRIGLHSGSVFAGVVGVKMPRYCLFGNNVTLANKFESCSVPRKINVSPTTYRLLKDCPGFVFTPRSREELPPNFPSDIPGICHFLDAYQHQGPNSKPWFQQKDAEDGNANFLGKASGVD
T1 sequence (P20595 1-619): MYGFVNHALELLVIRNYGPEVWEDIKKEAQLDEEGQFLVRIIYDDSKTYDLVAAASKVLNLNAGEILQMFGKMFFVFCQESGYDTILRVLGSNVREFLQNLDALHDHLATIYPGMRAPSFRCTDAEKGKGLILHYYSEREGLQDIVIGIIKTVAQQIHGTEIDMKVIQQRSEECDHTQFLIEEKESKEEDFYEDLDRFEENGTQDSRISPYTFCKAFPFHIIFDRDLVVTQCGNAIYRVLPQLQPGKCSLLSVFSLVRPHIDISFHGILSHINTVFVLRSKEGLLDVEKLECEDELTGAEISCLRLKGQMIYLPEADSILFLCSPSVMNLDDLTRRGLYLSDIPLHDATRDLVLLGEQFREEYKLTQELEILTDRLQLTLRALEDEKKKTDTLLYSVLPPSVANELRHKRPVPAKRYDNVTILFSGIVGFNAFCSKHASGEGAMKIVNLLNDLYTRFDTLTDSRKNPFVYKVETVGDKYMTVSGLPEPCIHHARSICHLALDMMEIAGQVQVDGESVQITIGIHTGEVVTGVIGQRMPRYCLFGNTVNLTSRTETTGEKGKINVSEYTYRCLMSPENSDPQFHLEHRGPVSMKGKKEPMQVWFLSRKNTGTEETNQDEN
Assay: Action on recombinant guanylate cyclase reporter cell line
Type: cell-based
Settings: in some cases mean values from individual determinations
How it was run: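 Each compound is applied to a cell line engineered with a reporter for recombinant guanylate cyclase. The minimal effective concentration is then noted, in part as a mean across separate determinations.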

MEC (minimal effective concentration) | Compound
0.30 µM | Cc1cc(OCc2c(F)cccc2F)c2nc(C)c(C(=O)NC(CN)c3ccc4c(c3)OCCO4)n2c1 (racemic) [Example 388, rac-N-[2-amino-1-(2,3-dihydro-1,4-benzodioxin-6-yl)ethyl]-8-[(2,6-difluorobenzyl)oxy]-2,6-dimethylimidazo[1,2-a]pyridine-3-carboxamide]
1.00 µM | Cc1cc(OCc2c(F)cccc2F)c2nc(C)c(C(=O)NC(CN)c3csc4ccccc34)n2c1 (racemic) [Example 389, rac-N-[2-amino-1-(1-benzothiophen-3-yl)ethyl]-8-[(2,6-difluorobenzyl)oxy]-2,6-dimethylimidazo[1,2-a]pyridine-3-carboxamide]
0.30 µM | Cc1cc(OCc2c(F)cccc2F)c2nc(C)c(C(=O)NC(CN)c3cc(F)c(F)c(F)c3)n2c1 (racemic) [Example 390, rac-N-[2-amino-1-(3,4,5-trifluorophenyl)ethyl]-8-[(2,6-difluorobenzyl)oxy]-2,6-dimethylimidazo[1,2-a]pyridine-3-carboxamide]
0.10 µM | CSCCC(CN)NC(=O)c1c(C)nc2c(OCc3c(F)cccc3F)cc(C)cn12 (racemic) [Example 391, rac-N-[1-amino-4-(methylsulfanyl)butan-2-yl]-8-[(2,6-difluorobenzyl)oxy]-2,6-dimethylimidazo[1,2-a]pyridine-3-carboxamide]
1.00 µM | Cc1cc(OCc2c(F)cccc2F)c2nc(C)c(C(=O)NC(CN)c3cccc(OC(F)F)c3)n2c1 (racemic) [Example 392, rac-N-{2-amino-1-[3-(difluoromethoxy)phenyl]ethyl}-8-[(2,6-difluorobenzyl)oxy]-2,6-dimethylimidazo[1,2-a]pyridine-3-carboxamide]
1.00 µM | Cc1cc(OCc2c(F)cccc2F)c2nc(C)c(C(=O)NC(CN)c3cccc(OCCO)c3)n2c1 (racemic) [Example 393, rac-N-{2-amino-1-[3-(2-hydroxyethoxy)phenyl]ethyl}-8-[(2,6-difluorobenzyl)oxy]-2,6-dimethylimidazo[1,2-a]pyridine-3-carboxamide]
0.30 µM | Cc1cc(OCc2c(F)cccc2F)c2nc(C)c(C(=O)NC(CN)c3cccc(C(F)(F)F)c3)n2c1 (racemic) [Example 394, rac-N-{2-amino-1-[3-(trifluoromethyl)phenyl]ethyl}-8-[(2,6-difluorobenzyl)oxy]-2,6-dimethylimidazo[1,2-a]pyridine-3-carboxamide]
1.00 µM | Cc1cc(OCc2c(F)cccc2F)c2nc(C)c(C(=O)NC(CN)c3ccc4ncccc4c3)n2c1 (racemic) [Example 395, rac-N-[2-amino-1-(quinolin-6-yl)ethyl]-8-[(2,6-difluorobenzyl)oxy]-2,6-dimethylimidazo[1,2-a]pyridine-3-carboxamide]
3.00 µM | CC(=O)Nc1cccc(C(CN)NC(=O)c2c(C)nc3c(OCc4c(F)cccc4F)cc(C)cn23)c1 (racemic) [Example 396, rac-N-[1-(3-acetamidophenyl)-2-aminoethyl]-8-[(2,6-difluorobenzyl)oxy]-2,6-dimethylimidazo[1,2-a]pyridine-3-carboxamide]
1.00 µM | COC(=O)c1cccc(C(N)CNC(=O)c2c(C)nc3c(OCc4c(F)cccc4F)cc(C)cn23)c1 (racemic) [Example 399, rac-Methyl 3-{1-amino-2-[({8-[(2,6-difluorobenzyl)oxy]-2,6-dimethylimidazo[1,2-a]pyridin-3-yl}carbonyl)amino]ethyl}benzoate]
0.65 µM | Cc1cc(OCc2c(F)cccc2F)c2nc(C)c(C(=O)NCC(N)C#N)n2c1 (racemic) [Example 400, rac-N-(2-amino-2-cyanoethyl)-8-[(2,6-difluorobenzyl)oxy]-2,6-dimethylimidazo[1,2-a]pyridine-3-carboxamide]
